In brackets after ≈: the same amount, converted by molar mass. Where two headings read alike, the source gives them in different places.
Key:
Assay in all cases: In vitro antibacterial activity, broth microdilution MIC90
Format in all cases: cell-based
[1] = system: Staphylococcus epidermidis
Protocol: (§1) MIC90 was measured by broth microdilution method based on CLSI standards [reference: Clinical and Laboratory Standards Institute Document. (2000) Methods for Dilution Antimicrobial Susceptibility Test for Bacteria that Grow Aerobically-Fifth Edition: M7-A5. CLSI, Villanova, Pa.].
(§2) Activities of 12 strains including Staphylococcus aureus, Methicillin Resistant Staphylococcus aureus, Staphylococcus epidermidis, Methicillin Resistant Staphylococcus epidermidis, Enterococcus faecalis, Vancomycin Resistant Enterococcus faecalis, Linezolid and Vancomycin Resistant Enterococcus faecalis, Enterococcus faecium, Vancomycin Resistant Enterococcus faecium, Linezolid and Vancomycin Resistant Enterococcus faecium, and Moraxella catarrhalis, were measured, and results are shown in Table 1 below.
(§3) The final concentration of test material in the antibacterial test was from 0.063 μg/mL (minimum) to 128 μg/mL (maximum), and the final concentration of DMSO used as an excipient was 2.5% (V/V). Linezolid represented by Formula B below (manufactured by Pfizer) was used as a control and bacterial activity thereof was compared with those of the test materials.

Enterococcus faecium = system: Enterococcus faecium
Protocol: as §1, §2, §3

[2] = system: Linezolid and Vancomycin Resistant Enterococcus faecium (strain 11)
Protocol: as §1, §2, §3

[3] = system: Methicillin Resistant Staphylococcus epidermidis
Protocol: as §1, §2, §3

[4] = system: Methicillin Resistant Staphylococcus aureus
Protocol: as §1, §2, §3

[5] = system: Linezolid and Vancomycin Resistant Enterococcus faecalis
Protocol: as §1, §2, §3

[6] = system: Vancomycin Resistant Enterococcus faecium
Protocol: as §1, §2, §3

Staphylococcus aureus = system: Staphylococcus aureus
Protocol: as §1, §2, §3

[7] = system: Linezolid and Vancomycin Resistant Enterococcus faecium (strain 10)
Protocol: as §1, §2, §3

Enterococcus faecalis = system: Enterococcus faecalis
Protocol: as §1, §2, §3

Moraxella catarrhalis = system: Moraxella catarrhalis
Protocol: as §1, §2, §3

[8] = system: Vancomycin Resistant Enterococcus faecalis
Protocol: as §1, §2, §3

[9] = Staphylococcus epidermidis, strain 3, S. epidermidis, read-out: MIC90
[10] = Enterococcus faecium, strain 8, E. faecium, read-out: MIC90
[11] = Enterococcus faecium, strain 11, E. faecium VanA LR, read-out: MIC90
[12] = Staphylococcus epidermidis, strain 4, S. epidermidis MR, read-out: MIC90
[13] = Staphylococcus aureus, strain 2, S. aureus MR, read-out: MIC90
[14] = Enterococcus faecalis, strain 7, E. faecalis VanA LR, read-out: MIC90
[15] = Enterococcus faecium, strain 9, E. faecium VanA, read-out: MIC90
[16] = Staphylococcus aureus, strain 1, S. aureus, read-out: MIC90
[17] = Enterococcus faecium, strain 10, E. faecium VanA LR, read-out: MIC90
[18] = Enterococcus faecalis, strain 5, E. faecalis, read-out: MIC90
[19] = Moraxella catarrhalis, strain 12, M. catarrhalis, read-out: MIC90
[20] = Enterococcus faecalis, strain 6, E. faecalis VanA, read-out: MIC90

`CC(=O)NC[C@H]1CN(c2ccc(-c3ccc(N4C=NN(C=O)CC4)nc3)c(F)c2)C(=O)O1` [Compound 1] gave an MIC90 [1, 9] of 0.25 µg/mL (≈ 0.568 µM), an MIC90 (Enterococcus faecium; [10]) of 0.5 µg/mL (≈ 1.14 µM) and an MIC90 [2, 11] of 2 µg/mL (≈ 4.54 µM). For the same molecule, the MIC90 [3, 12] was 1 µg/mL (≈ 2.27 µM), the MIC90 [4, 13] was 1 µg/mL (≈ 2.27 µM) and the MIC90 [5, 14] was 2 µg/mL (≈ 4.54 µM). The MIC90 [6, 15] was 0.5 µg/mL (≈ 1.14 µM), the MIC90 (Staphylococcus aureus; [16]) was 0.5 µg/mL (≈ 1.14 µM) and the MIC90 [7, 17] was 2 µg/mL (≈ 4.54 µM). It also gave an MIC90 (Enterococcus faecalis; [18]) of 0.5 µg/mL (≈ 1.14 µM), an MIC90 (Moraxella catarrhalis; [19]) of 2 µg/mL (≈ 4.54 µM) and an MIC90 [8, 20] of 0.5 µg/mL (≈ 1.14 µM).

`COC(=O)NC[C@H]1CN(c2ccc(-c3ccc(C4=NOCCN4C)nc3)c(F)c2)C(=O)O1` [Compound 70] was tested, and the MIC90 [1, 9] was 1 µg/mL (≈ 2.26 µM), the MIC90 (Enterococcus faecium; [10]) was 1 µg/mL (≈ 2.26 µM) and the MIC90 [2, 11] was 8 µg/mL (≈ 18 µM). It also gave an MIC90 [3, 12] of 4 µg/mL (≈ 9.02 µM), an MIC90 [4, 13] of 2 µg/mL (≈ 4.51 µM) and an MIC90 [5, 14] of 8 µg/mL (≈ 18 µM). For the same molecule, the MIC90 [6, 15] was 1 µg/mL (≈ 2.26 µM), the MIC90 (Staphylococcus aureus; [16]) was 1 µg/mL (≈ 2.26 µM) and the MIC90 [7, 17] was 8 µg/mL (≈ 18 µM). The MIC90 (Enterococcus faecalis; [18]) was 2 µg/mL (≈ 4.51 µM), the MIC90 (Moraxella catarrhalis; [19]) was 4 µg/mL (≈ 9.02 µM) and the MIC90 [8, 20] was 2 µg/mL (≈ 4.51 µM).

For `CC(=O)NC[C@H]1CN(c2ccc(-c3ccc(N4CCON=C4C)nc3)c(F)c2)C(=O)O1` [Compound 62], the MIC90 [1, 9] was 0.5 µg/mL (≈ 1.17 µM), the MIC90 (Enterococcus faecium; [10]) was 0.5 µg/mL (≈ 1.17 µM) and the MIC90 [2, 11] was 4 µg/mL (≈ 9.36 µM). It also gave an MIC90 [3, 12] of 4 µg/mL (≈ 9.36 µM), an MIC90 [4, 13] of 2 µg/mL (≈ 4.68 µM) and an MIC90 [5, 14] of 4 µg/mL (≈ 9.36 µM). The MIC90 [6, 15] was 1 µg/mL (≈ 2.34 µM), the MIC90 (Staphylococcus aureus; [16]) was 0.5 µg/mL (≈ 1.17 µM) and the MIC90 [7, 17] was 8 µg/mL (≈ 18.7 µM). For the same molecule, the MIC90 (Enterococcus faecalis; [18]) was 1 µg/mL (≈ 2.34 µM), the MIC90 (Moraxella catarrhalis; [19]) was 4 µg/mL (≈ 9.36 µM) and the MIC90 [8, 20] was 1 µg/mL (≈ 2.34 µM).

Work on `C#CCN1CCN(c2ccc(-c3ccc(N4C[C@H](CNC(C)=O)OC4=O)cc3F)cn2)C=N1` [Compound 8] yielded an MIC90 ([1]; Staphylococcus epidermidis) of 0.5 µg/mL (≈ 1.11 µM), an MIC90 (Enterococcus faecium; Enterococcus faecium) of 1 µg/mL (≈ 2.22 µM) and an MIC90 ([2]; Enterococcus faecium) of 4 µg/mL (≈ 8.88 µM). The MIC90 ([3]; Staphylococcus epidermidis) was 1 µg/mL (≈ 2.22 µM), the MIC90 ([4]; Staphylococcus aureus) was 1 µg/mL (≈ 2.22 µM) and the MIC90 ([5]; Enterococcus faecalis) was 4 µg/mL (≈ 8.88 µM). It also gave an MIC90 ([6]; Enterococcus faecium) of 0.5 µg/mL (≈ 1.11 µM), an MIC90 (Staphylococcus aureus; Staphylococcus aureus) of 0.25 µg/mL (≈ 0.555 µM) and an MIC90 ([7]; Enterococcus faecium) of 4 µg/mL (≈ 8.88 µM). The MIC90 (Enterococcus faecalis; Enterococcus faecalis) was 0.5 µg/mL (≈ 1.11 µM), the MIC90 (Moraxella catarrhalis; Moraxella catarrhalis) was 2 µg/mL (≈ 4.44 µM) and the MIC90 ([8]; Enterococcus faecalis) was 1 µg/mL (≈ 2.22 µM).

`CC(=O)NC[C@H]1CN(c2ccc(-c3ccc(N4C=NNCC4)nc3)c(F)c2)C(=O)O1` [Compound 2] gave an MIC90 ([1]; Staphylococcus epidermidis) of 0.5 µg/mL (≈ 1.21 µM), an MIC90 (Enterococcus faecium; Enterococcus faecium) of 0.5 µg/mL (≈ 1.21 µM) and an MIC90 ([2]; Enterococcus faecium) of 2 µg/mL (≈ 4.85 µM). For the same molecule, the MIC90 ([3]; Staphylococcus epidermidis) was 1 µg/mL (≈ 2.42 µM), the MIC90 ([4]; Staphylococcus aureus) was 1 µg/mL (≈ 2.42 µM) and the MIC90 ([5]; Enterococcus faecalis) was 2 µg/mL (≈ 4.85 µM). For the same molecule, the MIC90 ([6]; Enterococcus faecium) was 0.5 µg/mL (≈ 1.21 µM), the MIC90 (Staphylococcus aureus; Staphylococcus aureus) was 0.5 µg/mL (≈ 1.21 µM) and the MIC90 ([7]; Enterococcus faecium) was 2 µg/mL (≈ 4.85 µM). The MIC90 (Enterococcus faecalis; Enterococcus faecalis) was 0.5 µg/mL (≈ 1.21 µM), the MIC90 (Moraxella catarrhalis; Moraxella catarrhalis) was 4 µg/mL (≈ 9.7 µM) and the MIC90 ([8]; Enterococcus faecalis) was 0.5 µg/mL (≈ 1.21 µM).

Molecule `CC(=O)NC[C@H]1CN(c2ccc(-c3ccc(N4C=NN(C(=O)CN)CC4)nc3)c(F)c2)C(=O)O1` [Compound 19] has an MIC90 ([1]; Staphylococcus epidermidis) of 0.25 µg/mL (≈ 0.533 µM), an MIC90 (Enterococcus faecium; Enterococcus faecium) of 0.25 µg/mL (≈ 0.533 µM) and an MIC90 ([2]; Enterococcus faecium) of 2 µg/mL (≈ 4.26 µM). The MIC90 ([3]; Staphylococcus epidermidis) was 0.5 µg/mL (≈ 1.07 µM), the MIC90 ([4]; Staphylococcus aureus) was 0.5 µg/mL (≈ 1.07 µM) and the MIC90 ([5]; Enterococcus faecalis) was 2 µg/mL (≈ 4.26 µM). It also gave an MIC90 ([6]; Enterococcus faecium) of 0.5 µg/mL (≈ 1.07 µM), an MIC90 (Staphylococcus aureus; Staphylococcus aureus) of 0.25 µg/mL (≈ 0.533 µM) and an MIC90 ([7]; Enterococcus faecium) of 2 µg/mL (≈ 4.26 µM). It also gave an MIC90 (Enterococcus faecalis; Enterococcus faecalis) of 0.5 µg/mL (≈ 1.07 µM), an MIC90 (Moraxella catarrhalis; Moraxella catarrhalis) of 1 µg/mL (≈ 2.13 µM) and an MIC90 ([8]; Enterococcus faecalis) of 0.5 µg/mL (≈ 1.07 µM).

Molecule `Cl.NCC(=O)N1CCN(c2ccc(-c3ccc(N4C[C@H](COc5ccon5)OC4=O)cc3F)cn2)C=N1` [Compound 48] has an MIC90 ([1]; strain 3, S. epidermidis) of 1 µg/mL, an MIC90 (Enterococcus faecium; strain 8, E. faecium) of 1 µg/mL and an MIC90 ([2]; strain 11, E. faecium VanA LR) of 32 µg/mL. For the same molecule, the MIC90 ([3]; strain 4, S. epidermidis MR) was 4 µg/mL, the MIC90 ([4]; strain 2, S. aureus MR) was 1 µg/mL and the MIC90 ([5]; strain 7, E. faecalis VanA LR) was 32 µg/mL. The MIC90 ([6]; strain 9, E. faecium VanA) was 2 µg/mL, the MIC90 (Staphylococcus aureus; strain 1, S. aureus) was 0.5 µg/mL and the MIC90 ([7]; strain 10, E. faecium VanA LR) was 16 µg/mL. For the same molecule, the MIC90 (Enterococcus faecalis; strain 5, E. faecalis) was 4 µg/mL, the MIC90 (Moraxella catarrhalis; strain 12, M. catarrhalis) was 32 µg/mL and the MIC90 ([8]; strain 6, E. faecalis VanA) was 4 µg/mL.

`CNC(=O)N1CCN(c2ccc(-c3ccc(N4C[C@H](CNC(C)=O)OC4=O)cc3F)cn2)C=N1` [Compound 16] showed an MIC90 ([1]; Staphylococcus epidermidis) of 0.25 µg/mL (≈ 0.533 µM), an MIC90 (Enterococcus faecium; Enterococcus faecium) of 0.5 µg/mL (≈ 1.07 µM) and an MIC90 ([2]; Enterococcus faecium) of 2 µg/mL (≈ 4.26 µM). The MIC90 ([3]; Staphylococcus epidermidis) was 1 µg/mL (≈ 2.13 µM), the MIC90 ([4]; Staphylococcus aureus) was 1 µg/mL (≈ 2.13 µM) and the MIC90 ([5]; Enterococcus faecalis) was 1 µg/mL (≈ 2.13 µM). The MIC90 ([6]; Enterococcus faecium) was 0.5 µg/mL (≈ 1.07 µM), the MIC90 (Staphylococcus aureus; Staphylococcus aureus) was 0.25 µg/mL (≈ 0.533 µM) and the MIC90 ([7]; Enterococcus faecium) was 2 µg/mL (≈ 4.26 µM). It also gave an MIC90 (Enterococcus faecalis; Enterococcus faecalis) of 0.25 µg/mL (≈ 0.533 µM), an MIC90 (Moraxella catarrhalis; Moraxella catarrhalis) of 2 µg/mL (≈ 4.26 µM) and an MIC90 ([8]; Enterococcus faecalis) of 0.5 µg/mL (≈ 1.07 µM).

`CC(=O)NC[C@H]1CN(c2ccc(-c3ccc(C4=NOCCN4)nc3)c(F)c2)C(=O)O1` [Compound 64] showed an MIC90 [1, 9] of 0.25 µg/mL (≈ 0.605 µM), an MIC90 (Enterococcus faecium; [10]) of 0.25 µg/mL (≈ 0.605 µM) and an MIC90 [2, 11] of 2 µg/mL (≈ 4.84 µM). The MIC90 [3, 12] was 0.5 µg/mL (≈ 1.21 µM), the MIC90 [4, 13] was 0.5 µg/mL (≈ 1.21 µM) and the MIC90 [5, 14] was 1 µg/mL (≈ 2.42 µM). For the same molecule, the MIC90 [6, 15] was 0.25 µg/mL (≈ 0.605 µM), the MIC90 (Staphylococcus aureus; [16]) was 0.25 µg/mL (≈ 0.605 µM) and the MIC90 [7, 17] was 1 µg/mL (≈ 2.42 µM). For the same molecule, the MIC90 (Enterococcus faecalis; [18]) was 0.25 µg/mL (≈ 0.605 µM), the MIC90 (Moraxella catarrhalis; [19]) was 2 µg/mL (≈ 4.84 µM) and the MIC90 [8, 20] was 0.25 µg/mL (≈ 0.605 µM).

Reference: patent US8846669B2, “Oxazolidinone derivative and medical composition containing same” (Legochem Biosciences, Inc., priority 2011, dated 2014)
